Experimental data as given in PMC4674167 (The Journal of organic chemistry, 2015).
Where two headings read alike, the source gives them in different places.

What was measured:
[1] = system: M. tuberculosis strain H37Rv; assay type: cell-based, Mycobacterium tuberculosis; settings: for fold more potent in MIC than the 3′-α-fluoro diastereomer: 14 vs 15, 16 vs 17, M. tuberculosis H37Rv
[2] = rat, in vivo; for i.v. AUC0-inf / i.v. CL / i.v. t1/2: iv, 2.5 mg/kg; for p.o. AUC0-inf / p.o. Cmax: po, 25 mg/kg
MbtA = MbtA (Mycobacterium tuberculosis, UniProt P71716); assay type: biochemical; settings: for Ki: read-out: Ki^app, apparent Ki against MbtA; for fold more potent in MbtA inhibition than the 3′-α-fluoro diastereomer: 14 vs 15, 16 vs 17
Sequence of MbtA (P71716 whole entry): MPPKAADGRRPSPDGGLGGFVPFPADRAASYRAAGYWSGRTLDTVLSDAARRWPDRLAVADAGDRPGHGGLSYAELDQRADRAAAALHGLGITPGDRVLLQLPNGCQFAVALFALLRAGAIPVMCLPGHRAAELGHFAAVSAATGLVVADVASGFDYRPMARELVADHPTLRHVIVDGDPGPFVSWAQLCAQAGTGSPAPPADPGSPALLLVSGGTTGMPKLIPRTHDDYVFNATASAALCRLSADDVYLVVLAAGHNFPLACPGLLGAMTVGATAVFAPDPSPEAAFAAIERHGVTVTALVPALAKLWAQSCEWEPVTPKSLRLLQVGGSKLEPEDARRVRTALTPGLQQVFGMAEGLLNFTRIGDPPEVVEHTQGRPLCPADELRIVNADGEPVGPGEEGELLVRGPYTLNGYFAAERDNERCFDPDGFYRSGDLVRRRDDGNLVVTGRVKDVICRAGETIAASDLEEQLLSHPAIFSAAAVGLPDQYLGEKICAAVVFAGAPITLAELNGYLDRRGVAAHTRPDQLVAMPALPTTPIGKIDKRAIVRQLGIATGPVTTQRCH

[3] = Single dose pharmacokinetics in cannulated rats
[4] = rat, in vivo, cited from earlier work; for p.o. AUC0-inf / p.o. Cmax: po, 25 mg/kg

CCN(CC)CC.Nc1ncnc2c1ncn2[C@@H]1O[C@H](CNS(=O)(=O)NC(=O)c2ccccc2O)[C@@H](F)[C@H]1O [compound 15, 9-[3,5-Dideoxy-3-fluoro-5-{N-(N-2-hydroxybenzoyl)sulfamoyl}amino-β-D-ribofuranosyl]adenine Triethylammonium Salt]
MIC [1]: 2.3 µM
F (relative oral bioavailability) [2]: 3.5 ± 0.2%
i.v. AUC0-inf [2]: 807 ± 78 μg.min.mL^–1
i.v. CL [2]: 3.1 ± 0.3 mL.min^–1.kg^–1
i.v. t1/2 [2]: 37.0 ± 1.7 min
p.o. AUC0-inf [2]: 266 ± 2 μg.min.mL^–1
p.o. Cmax [2]: 0.92 ± 0.04 μg.mL^–1
Ki (MbtA): 6.4 ± 0.3 nM

CCN(CC)CC.Nc1ncnc2c1ncn2[C@@H]1O[C@H](CNS(=O)(=O)NC(=O)c2ccccc2O)[C@@H](O)[C@H]1F [compound 12, 9-[2,5-Dideoxy-2-fluoro-5-{N-(N-2-hydroxybenzoyl)sulfamoyl}amino-β-D-ribofuranosyl]adenine Triethylammonium Salt]
MIC [1]: 0.19 µM
F (relative oral bioavailability) [2]: 1.8 ± 0.9%
i.v. AUC0-inf [2]: 1040 ± 330 μg.min.mL^–1
i.v. CL [2]: 2.5 ± 0.9 mL.min^–1.kg^–1
i.v. t1/2 [2]: 32.5 ± 7.4 min
p.o. AUC0-inf [2]: 187 ± 11 μg.min.mL^–1
p.o. Cmax [2]: 0.46 ± 0.30 μg.mL^–1
Ki (MbtA): 1.7 to 1.8 nM
Ki (MbtA; listed as C00001): 1.7 ± 0.1 nM

CCN(CC)CC.Nc1ncnc2c1ncn2[C@@H]1O[C@H](CNS(=O)(=O)NC(=O)c2ccccc2O)[C@@H](F)[C@H]1F [compound 17, 9-[2,3,5-Trideoxy-2,3-difluoro-5-{N-(N-2-hydroxybenzoyl)sulfamoyl}amino-β-D-ribofuranosyl]adenine Triethylammonium Salt]
MIC [1]: 37 µM
F (relative oral bioavailability) [2]: 5.3 ± 1.3%
i.v. AUC0-inf [2]: 10100 ± 2200 μg.min.mL^–1
i.v. CL [2]: 0.24 ± 0.06 mL.min^–1.kg^–1
i.v. t1/2 [2]: 267 ± 36 min
p.o. AUC0-inf [2]: 4730 ± 540 μg.min.mL^–1
p.o. Cmax [2]: 5.99 ± 0.56 μg.mL^–1
Ki (MbtA): 139 ± 10 nM
fold increase in half-life compared to SAL-AMS (10) [3]: ca. 25 fold
fold higher Cmax compared to SAL-AMS (10) ([3]; p.o. 25 mg/kg): 15 fold
fold increase in F% compared to SAL-AMS (10) ([3]; p.o. 25 mg/kg): fourfold
fold increased oral exposure (oral AUC) compared to SAL-AMS (10) ([3]; p.o. 25 mg/kg): ca. 75 fold

CCN(CC)CC.Nc1ncnc2c1ncn2[C@@H]1O[C@H](CNS(=O)(=O)NC(=O)c2ccccc2O)[C@H](F)[C@H]1F [compound 16, 9-[2,3,5-Trideoxy-2,3-difluoro-5-{N-(N-2-hydroxybenzoyl)sulfamoyl}amino-β-D-xylofuranosyl]adenine Triethylammonium Salt]
MIC [1]: 0.78 µM
fold more potent in MIC than the 3′-α-fluoro diastereomer [1]: ca. 50 fold
F (relative oral bioavailability) [2]: 11.4 ± 0.3%
i.v. AUC0-inf [2]: 312 ± 54 μg.min.mL^–1
i.v. CL [2]: 8.5 ± 1.6 mL.min^–1.kg^–1
i.v. t1/2 [2]: 17.2 ± 1.3 min
p.o. AUC0-inf [2]: 362 ± 85 μg.min.mL^–1
p.o. Cmax [2]: 0.97 ± 0.42 μg.mL^–1
fold more potent in MbtA inhibition than the 3′-α-fluoro diastereomer (MbtA): ~100 fold
Ki (MbtA): 1.4 ± 0.3 nM

Nc1ncnc2c1ncn2[C@@H]1O[C@H](CNS(=O)(=O)NC(=O)c2ccccc2O)[C@@H](O)[C@H]1O [compound 11]
i.v. AUC0-inf ([4]; iv, 2.5 mg/kg): 304 ± 60 μg.min.mL^–1
i.v. CL ([4]; iv, 2.5 mg/kg): 8.4 ± 1.9 mL.min^–1.kg^–1
i.v. t1/2 ([4]; iv, 2.5 mg/kg): 10.6 ± 0.7 min
p.o. AUC0-inf [4]: 100 ± 14 μg.min.mL^–1
p.o. Cmax [4]: 0.70 ± 0.07 μg.mL^–1
F (relative oral bioavailability) [4]: 3.5 ± 0.2%

Nc1ncnc2c1ncn2[C@@H]1O[C@H](COS(=O)(=O)NC(=O)c2ccccc2O)[C@@H](O)[C@H]1O [compound 10, 5′-O-[N-(salicyl)sulfamoyl]adenosine]
i.v. AUC0-inf ([4]; iv, 2.5 mg/kg): 519 ± 115 μg.min.mL^–1
i.v. t1/2 ([4]; iv, 2.5 mg/kg): 11.2 ± 2.2 min
p.o. AUC0-inf [4]: 66 ± 41 μg.min.mL^–1
p.o. Cmax [4]: 0.40 ± 0.20 μg.mL^–1
F (relative oral bioavailability) [4]: 1.3 ± 0.7%

CCN(CC)CC.Nc1ncnc2c1ncn2[C@@H]1O[C@H](CNS(=O)(=O)NC(=O)c2ccccc2O)[C@@H](O)[C@@H]1F [compound 13, 9-[2,5-Dideoxy-2-fluoro-5-{N-(N-2-hydroxybenzoyl)sulfamoyl}amino-β-D-arabinofuranosyl]adenine Triethylammonium Salt]
MIC [1]: 0.15 µM
F (relative oral bioavailability) [2]: 4.7 ± 1.1%
i.v. AUC0-inf [2]: 913 ± 65 μg.min.mL^–1
i.v. CL [2]: 2.7 ± 0.2 mL.min^–1.kg^–1
i.v. t1/2 [2]: 31.7 ± 1.9 min
p.o. AUC0-inf [2]: 422 ± 70 μg.min.mL^–1
p.o. Cmax [2]: 1.09 ± 0.03 μg.mL^–1
Ki (MbtA): 1.7 to 1.8 nM
Ki (MbtA; listed as C00003): 1.8 ± 0.1 nM

CCN(CC)CC.Nc1ncnc2c1ncn2[C@@H]1O[C@H](CNS(=O)(=O)NC(=O)c2ccccc2O)[C@H](F)[C@H]1O [compound 14, 9-[3,5-Dideoxy-3-fluoro-5-{N-(N-2-hydroxybenzoyl)sulfamoyl}amino-β-D-xylofuranosyl]adenine Triethylammonium Salt]
MIC [1]: 0.60 µM
fold more potent in MIC than the 3′-α-fluoro diastereomer [1]: fourfold
F (relative oral bioavailability) [2]: 2.3 ± 0.4%
i.v. AUC0-inf [2]: 366 ± 33 μg.min.mL^–1
i.v. CL [2]: 6.9 ± 0.3 mL.min^–1.kg^–1
i.v. t1/2 [2]: 17.4 ± 1.4 min
p.o. AUC0-inf [2]: 84 ± 12 μg.min.mL^–1
p.o. Cmax [2]: 0.64 ± 0.22 μg.mL^–1
fold more potent in MbtA inhibition than the 3′-α-fluoro diastereomer (MbtA): approximately 10 fold
Ki (MbtA): 0.6 ± 0.3 nM
